Data as given in publication PMC6194148, “Phenylindanes in Brewed Coffee Inhibit Amyloid-Beta and Tau Aggregation” (Frontiers in Neuroscience, 2018).
Where two headings read alike, the source gives them in different places. Values belong to the molecule of their own block, whether it stands above or below them.

How the values were obtained:
Type in all cases: biochemical
[1] = biological target: T1, amyloid-beta (Aβ) (Homo sapiens, UniProt P05067); assay: Aβ oligomerization ELISA (biotinylated Aβ[…]-42); also ThT fibrillization, […] inhibition at […]; set-up: gene APP; biotinylated Aβ1-42 (oligomerization); Aβ1-40 (fibrillization)
Target sequence in this assay (P05067 672-713): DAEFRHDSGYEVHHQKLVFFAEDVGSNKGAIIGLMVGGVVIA

[2] = biological target: T2, tau (tau40) (Homo sapiens, UniProt P10636); assay: ThS fluorescence fibrillization assay (heparin-containing buffer); […] inhibition at […], […] at […]; conditions: read-out: Tau fibril inhibition (%)
T2 construct: gene MAPT; Human tau40, tag-free, expressed in E. coli

[3] = biological target: T1, amyloid-beta (Aβ); assay: Aβ oligomerization ELISA (biotinylated Aβ[…]-42); also ThT fibrillization, […] inhibition at […]; set-up: gene APP; biotinylated Aβ1-42 (oligomerization); Aβ1-40 (fibrillization); remark: listed apart in the source
Target sequence in this assay (P05067 672-713): as above

[4] = biological target: T1, amyloid-beta (Aβ); assay: ThT fluorescence fibrillization assay at […]; no inhibition of Aβ oligomerization; set-up: gene APP; Aβ1-40; conditions: read-out: Aβ fibril inhibition (%)
Target sequence in this assay (P05067 672-711): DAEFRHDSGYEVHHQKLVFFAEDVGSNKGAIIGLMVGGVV

T2 sequence (P10636 2-441 isoform P10636-8): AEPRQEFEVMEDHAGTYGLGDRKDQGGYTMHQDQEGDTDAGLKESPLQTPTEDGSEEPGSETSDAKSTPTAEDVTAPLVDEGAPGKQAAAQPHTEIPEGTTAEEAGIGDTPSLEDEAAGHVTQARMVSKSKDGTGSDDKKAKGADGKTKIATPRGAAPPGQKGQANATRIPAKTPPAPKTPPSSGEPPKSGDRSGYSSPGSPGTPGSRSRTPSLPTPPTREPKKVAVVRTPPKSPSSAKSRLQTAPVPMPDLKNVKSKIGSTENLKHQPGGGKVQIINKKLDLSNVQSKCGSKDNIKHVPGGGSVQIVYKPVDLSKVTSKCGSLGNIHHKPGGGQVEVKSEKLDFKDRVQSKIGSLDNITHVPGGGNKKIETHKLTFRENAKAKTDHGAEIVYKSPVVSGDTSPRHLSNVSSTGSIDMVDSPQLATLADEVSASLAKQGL

SMILES: O=c1c(O)c(-c2ccc(O)c(O)c2)oc2cc(O)cc(O)c12 [compound 5, Quercetin]
- IC50 [1]: 10.3 ± 1.1 µM

- inhibition at 100 µM [2]: 95.2 ± 1.7%
- IC50 [3]: 42.1 ± 1.4 µM
SMILES: CC1CC(c2ccc(O)c(O)c2)c2cc(O)c(O)cc21 (mixture of isomers) [compound 6, Phenylindane]

- inhibition at 100 µM [4]: 97.7 ± 0.7%
SMILES: O=C(/C=C/c1ccc(O)c(O)c1)O[C@@H]1C[C@](O)(C(=O)O)C[C@@H](O)[C@H]1O [compound 2, Chlorogenic acid]

- inhibition at 100 µM [4]: 99.4 ± 0.9%
SMILES: O=C(O)/C=C/c1ccc(O)c(O)c1 [compound 4, Caffeic acid]
